# Data as given in PubChem BioAssay AID1963963 (Molecular Pharmacology Branch, DTP, NCI, 2024).
# System: 958667-338-R-J2-PDC tumor spheroids viability
# Assay: Anticancer human tumor 958667-338-R-J2-PDC patient-derived colon adenocarcinoma cell line growth inhibition [PI3K]
# Conditions: spheroids with HUVEC and MSC; for IC50: curve of first compound; for viability, T/C: stronger effect = lower value
# Source text: Combinatorial screen of targeted agents with the PI3K inhibitors inavolisib, alpelisib, duvelisib, and copanlisib in multi-cell type tumor spheroids
# A high-throughput screen of multi-cell type tumor spheroids was designed to identify active combinations of targeted small molecules and PI3K pathway inhibitors. Complex spheroids include a stromal component modeled by human endothelial cells (HUVEC) and fibroblasts modeled by human mesenchymal stem cells (MSCs). The concentration ranges selected for each drug and investigational agent were based upon clinically achievable concentrations if the clinical Cmax of the agent was known.
# Compounds. The drugs and investigational agents: inavolisib (NSC800729), alpelisib (NSC765974), duvelisib (NSC772469), copanlisib (NSC816437), ipatasertib (NSC767898), afuresertib (NSC778305), talazoparib (NSC767125), sapanisertib (NSC764658), selumetinib (NSC741078), tovorafenib (DAY101, NSC766906), vemurafenib (NSC761431), ravoxertinib (NSC781343), sotorasib (NSC818433), MRTX1133 (NSC 836407), abemaciclib (NSC 768073), palbociclib (NSC758247), venetoclax (NSC 766270), SY5609 (NSC837396), enzalutamide (NSC755605), and darolutamide (NSC825331), were obtained from the National Cancer Institute (NCI) Developmental Therapeutics Program Chemical Repository. The FDA-approved anticancer drug set is available from the NCI Developmental Therapeutics Program. […] The stock solutions were prepared in dimethyl sulfoxide (DMSO, Sigma-Aldrich, St. Louis, MO, cat. D2650) at 800-fold the tested concentration and stored at -70 degrees C prior to their use. All drugs and investigational agents were tested over a range starting from a high concentration at or near the clinical Cmax and decreasing in half-log increments. If the clinical Cmax for an agent had not been determined, the highest concentration tested was 10 microM.
# Cell Culture. All cells were maintained in an incubator at 37 degrees C and 5% CO2 with 95% humidity. The PDC lines were cultured according to standard operating procedures established by the NCI PDMR (https://pdmr.cancer.gov/sops/default.htm). All PDCs were thawed and cultured in Matrigel-coated flasks prepared with a working solution of 1X Ham's F-12 nutrient mix, without supplementation (Invitrogen, Waltham, MA, cat. 11765054), 100 U/mL penicillin-streptomycin (Invitrogen, cat. 15140122), and 2.5% Matrigel (Corning Inc., Corning, NY, cat. 354248) for the first three passages. The 354836-022-R-J1-PDC, 475296-252-R-J1-PDC, and 997726-040-R-J2-PDC lines were cultured in 6A media, which includes advanced DMEM/F-12 (Thermo Fisher Scientific, cat. 12634028), 10 mM HEPES (Thermo Fisher Scientific, cat. 15630080), 1X GlutaMAX supplement (Thermo Fisher Scientific, cat. 35050061), 0.1 mg/mL primocin (InvivoGen, San Diego, CA, cat. ant-pm-2), 10% defined fetal bovine serum, heat inactivated (HyClone Laboratories Inc., Logan, UT, cat. SH30070.03HI), 50% L-WRN conditioned media (ATCC, cat. CRL-3276), 1.25 mM N-Acetyl-L-cysteine (Sigma-Aldrich, cat. A9165), 10 mM nicotinamide (Sigma-Aldrich, cat. N0636), 1X B-27 supplement (Thermo Fisher Scientific, cat. 17504044), 1X N-2 supplement (Thermo Fisher Scientific, cat. 17502048), and 10 microM Y-27632 dihydrochloride (Tocris Bioscience, Bristol, United Kingdom, cat. 1254). The 624824-186-R-J2-PDC line was cultured in 6C/Colon 1B media, which includes all 6A media components plus 50 ng/mL human EGF recombinant protein (Thermo Fisher Scientific, cat. PHG0311). […]
# 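Also: spheroids exposed to compounds for seven days before readout.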
compound,measurement,setting,value
CNC(=O)c1ccc(N2C(=S)N(c3ccc(C#N)c(C(F)(F)F)c3)C(=O)C2(C)C)cc1F + CC(Nc1ccc2c(c1)OCCn1cc(N3C(=O)OCC3C(F)F)nc1-2)C(N)=O,IC50,second compound 0.00316 µM,> 10 µM
same,IC50,second compound 0.01 µM,> 10 µM
same,IC50,second compound 0.0316 µM,> 10 µM
same,IC50,second compound 0.1 µM,> 10 µM
same,IC50,second compound 0.316 µM,> 10 µM
same,IC50,second compound 1 µM,> 10 µM
same,"viability, T/C","second compound 0.00316 µM, first compound 0.0316 µM",96.3%
same,"viability, T/C","second compound 0.00316 µM, first compound 0.1 µM",103%
same,"viability, T/C","second compound 0.00316 µM, first compound 0.316 µM",93.4%
same,"viability, T/C","second compound 0.00316 µM, first compound 1 µM",84.3%
same,"viability, T/C","second compound 0.00316 µM, first compound 3.16 µM",97.1%
same,"viability, T/C","second compound 0.00316 µM, first compound 10 µM",102%
same,"viability, T/C","second compound 0.01 µM, first compound 0.0316 µM",115%
same,"viability, T/C","second compound 0.01 µM, first compound 0.1 µM",102%
same,"viability, T/C","second compound 0.01 µM, first compound 0.316 µM",80.6%
same,"viability, T/C","second compound 0.01 µM, first compound 1 µM",97.6%
same,"viability, T/C","second compound 0.01 µM, first compound 3.16 µM",89.9%
same,"viability, T/C","second compound 0.01 µM, first compound 10 µM",95.7%
same,"viability, T/C","second compound 0.0316 µM, first compound 0.0316 µM",104%
same,"viability, T/C","second compound 0.0316 µM, first compound 0.1 µM",98.1%
same,"viability, T/C","second compound 0.0316 µM, first compound 0.316 µM",93.6%
same,"viability, T/C","second compound 0.0316 µM, first compound 1 µM",107%
same,"viability, T/C","second compound 0.0316 µM, first compound 3.16 µM",104%
same,"viability, T/C","second compound 0.0316 µM, first compound 10 µM",94.6%
same,"viability, T/C","second compound 0.1 µM, first compound 0.0316 µM",84.5%
same,"viability, T/C","second compound 0.1 µM, first compound 0.1 µM",57.5%
same,"viability, T/C","second compound 0.1 µM, first compound 0.316 µM",90%
same,"viability, T/C","second compound 0.1 µM, first compound 1 µM",79.6%
same,"viability, T/C","second compound 0.1 µM, first compound 3.16 µM",85.1%
same,"viability, T/C","second compound 0.1 µM, first compound 10 µM",83.5%
same,"viability, T/C","second compound 0.316 µM, first compound 0.0316 µM",75.3%
same,"viability, T/C","second compound 0.316 µM, first compound 0.1 µM",73.5%
same,"viability, T/C","second compound 0.316 µM, first compound 0.316 µM",73.9%
same,"viability, T/C","second compound 0.316 µM, first compound 1 µM",72.5%
same,"viability, T/C","second compound 0.316 µM, first compound 3.16 µM",63%
same,"viability, T/C","second compound 0.316 µM, first compound 10 µM",68.4%
same,"viability, T/C","second compound 1 µM, first compound 0.0316 µM",67%
same,"viability, T/C","second compound 1 µM, first compound 0.1 µM",64.3%
same,"viability, T/C","second compound 1 µM, first compound 0.316 µM",64.2%
same,"viability, T/C","second compound 1 µM, first compound 1 µM",62%
same,"viability, T/C","second compound 1 µM, first compound 3.16 µM",69.4%
same,"viability, T/C","second compound 1 µM, first compound 10 µM",50.6%
